The test system of data set [1] is Adult snails. Description: Molluscicide activity, adult snails. In kind it is in vivo. To be noted: 0/10-2/10 inactive, 3/10-7/10 partially active, 8/10-10/10 active.
Data set [2] deals with mites. The data set can be described thus: Leaf Disc Mite Assay. In kind it is in vivo. To be noted: 48 hours, adult mites. On the procedure: A stock solution of 50,000 ppm is prepared. The solution consists of 25 percent DMF, 75 percent IPA and approximately 4 percent Tween 20. The stock solution is diluted (1:20) to a concentration of 2500 ppm using as a diluent 70 percent acetone containing 0.1 percent Tween 20. The 2500 ppm solution is used for the initial screen.
Leaf discs 15 mm in diameter are cut from fresh Henderson Bush Lima Bean plants. Discs are then dropped in the appropriate dilution of the chemical being tested.
The leaf discs are allowed to dry and then placed on moistened filter paper in appropriately labeled petri dishes. Ten adult mites are placed on each disc. Nine discs are used for each compound. Percent mortality is determined after 48 hours.
When a compound is rated very active, 1:10 dilutions are made of the 2500 stock.

Data set [3] deals with newly hatched snails of the strain B. glabrata. Description: Molluscicide activity, newly hatched snails. It is filed as in vivo. The following applies: 24 hours, 26° C, 0/10-2/10 inactive, 3/10-7/10 partially active, 8/10-10/10 active.
Data set [4] can be described thus: Mice oral LD 50. The following applies: mouse, in vivo, orally.

Where only a bound is given, the exact number is not on record here.

Take `OC(c1ccc(Cl)cc1)(c1cccs1)C1CC1` (stereo not drawn) [compound 1]: the “Molluscicide, mortality, Adult” value in data set [1] (1 ppm) is given as 0/10; in data set [1] (10 ppm), 6/10. For the same compound, the “Mites, percent mortality (activity rating)” value (“Mites, percent mortality” below) in data set [2] (2500 ppm) is “SIA (25-50 percent is slightly active (SIA))”. For the same compound, the “Molluscicide, mortality, New” value in data set [3] (1 ppm) was 6/10; in data set [3] (10 ppm), 10/10.

Turning to `OC(c1ccc(C(F)(F)F)cc1)(c1cccs1)C1CC1` (stereo not drawn) [compound 2], the entries for the “Molluscicide, mortality, Adult” value in data set [1] (1 ppm) and in data set [1] (10 ppm) were 0/10 and 6/10, respectively. In addition, the “Mites, percent mortality” value in data set [2] (2500 ppm) is given as “SIA (25-50 percent is slightly active (SIA))”. Also, the “Molluscicide, mortality, New” value in data set [3] (1 ppm) is on record as 4/10; in data set [3] (10 ppm) it was 10/10.

With `OC(c1ccc(Cl)cc1)(c1ccc(Cl)s1)C1CC1` (stereo not drawn) [compound 4], the “Molluscicide, mortality, Adult” value in data set [1] (1 ppm) is given as 0/10; in data set [1] (10 ppm), 9/10. Besides, the figures for the “Mites, percent mortality” value in data set [2] (500 ppm) and in data set [2] (2500 ppm) were “A (50-80 percent mortality is rated active (A))” and “VA (80-100 percent mortality are rated very active (VA))”, respectively. The “Molluscicide, mortality, New” value is 7/10 in data set [3] (1 ppm) and 10/10 in data set [3] (10 ppm).

In the case of `OC(c1ccc(C(F)(F)F)cc1)(c1ccc(Cl)s1)C1CC1` (stereo not drawn) [compound 5], the “Molluscicide, mortality, Adult” value in data set [1] (1 ppm) is reported as 1/10; in data set [1] (10 ppm), 0/10. The “Mites, percent mortality” value in data set [2] (500 ppm) is reported as “A (50-80 percent mortality is rated active (A))”; in data set [2] (2500 ppm), “VA (80-100 percent mortality are rated very active (VA))”. Also, in data set [4], the LD50 is more than 1000 mg/kg. The “Molluscicide, mortality, New” value is given as 8/10 in data set [3] (1 ppm) and 10/10 in data set [3] (10 ppm).

Regarding `Cc1ccc(C(O)(c2ccc(Cl)s2)C2CC2)cc1` (stereo not drawn) [compound 7], the “Molluscicide, mortality, Adult” value is listed as 0/10 in data set [1] (1 ppm) and 9/10 in data set [1] (10 ppm). The compound further had an LD50 in data set [4] of more than 1000 mg/kg. Further, the “Molluscicide, mortality, New” value in data set [3] (1 ppm) is on record as 4/10; in data set [3] (10 ppm), 10/10.

Turning to `OC(c1ccc(Br)cc1)(c1ccc(Cl)s1)C1CC1` (stereo not drawn) [compound 8], the “Molluscicide, mortality, Adult” value is given as 3/10 in data set [1] (1 ppm) and 9/10 in data set [1] (10 ppm). For the same compound, in data set [2] (2500 ppm), the “Mites, percent mortality” value is on record as “VA (80-100 percent mortality are rated very active (VA))”. Also, the “Molluscicide, mortality, New” value in data set [3] (1 ppm) and in data set [3] (10 ppm) was 10/10 each time.

In the case of `OC(c1ccc(F)cc1)(c1ccc(Cl)s1)C1CC1` (stereo not drawn) [compound 9], the “Molluscicide, mortality, Adult” value is 0/10 in data set [1] (1 ppm) and 9/10 in data set [1] (10 ppm). This compound also registered an LD50 in data set [4] of more than 300 mg/kg. Also, the “Molluscicide, mortality, New” value in data set [3] (1 ppm) is 5/10; in data set [3] (10 ppm) it was 10/10.

With “α-(5-Chloro-2-Thienyl)4-Chlorophenylcyclopropylmethanol [No. 4]”, the “Molluscicide, mortality, Adult” value in data set [1] (1 ppm) and in data set [1] (10 ppm) was 0/10 each time. The “Molluscicide, mortality, New” value in data set [3] (1 ppm) and in data set [3] (10 ppm) was 0/10 in each case.

The values are drawn from US4022903A, “α-Thienyl and α-substituted thienyl, phenyl and substituted phenyl cyclopropylomethanols useful as biodegradable insecticides and mollusicides” (Abbott Laboratories, priority 1975, dated 1977).
